Reference: patent US20250243343A1, “LUBRICANT COMPOSITION FOR PREPARING ETHYLENE-BASED POLYMER AND METHOD OF PREPARING ETHYLENE-BASED POLYMER USING THE SAME” (SK INNOVATION CO., LTD., priority 2024, published 2025)

Columns and labels:
[1] = Acrylic acid self-polymerization (time until PAA formation); conditions: for Polymerization time: oil:stabilizer 100:0.5, AA:lubricant composition 1:1 by weight, 100° C.; for polymerization stability time / PAA formation inhibition effect (in words): Table 1
Description: The reactor was heated to 100° C., followed by observing whether a self-polymer (PAA) was formed in the reactor every 10 minutes. As soon as the PAA was observed visually, the experiment was stopped and a polymerization time was recorded.

[2] = Measurement of solubility of the oxidation stabilizer in white mineral oil (visual observation); conditions: Table 1
Description: A lubricant composition was prepared by mixing a white mineral oil and the oxidation stabilizer of Table 1 below in a weight ratio of 100:0.1.
The lubricant composition was left for 1 hour and observed visually. If precipitation occurred or the lubricant composition discolored or became opaque, it was evaluated as “X.” When no precipitation occurred and the lubricant composition was colorless and transparent, it was evaluated as “O.”

[3] = nitrogen atmosphere, PAA observed visually every 10 minutes

Row | Molecule | Polymerization time [1, 3] [h] | other results
1 | CC(C)(C)c1cc(CO)cc(C(C)(C)C)c1O [B-6, 2,6-Di-tert-butyl-4-hydroxymethylphenol] | 2 | –
2 | CC(C)(C)CC(C)(C)c1cc(O)c(C(C)(C)CC(C)(C)C)cc1O [B-11, 2,5-Bis(1,1,3,3-tetramethylbutyl) hydroquinone] | 2 | –
3 | CCc1cc(Cc2cc(CC)cc(C(C)(C)C)c2O)c(O)c(C(C)(C)C)c1 [B-10, 2,2′-Methylenebis(6-tert-butyl-4-ethylphenol)] | 0.333 | –
4 | CC(C)(C)c1cc(C(=O)O)cc(C(C)(C)C)c1O [B-7, 3,5-Di-tert-butyl-4-hydroxybenzoic acid] | 0.333 | –
5 | COc1cc(C(C)(C)C)c(O)c(C(C)(C)C)c1 [A-2, 2,6-Di-tert-butyl-4-methoxyphenol] | 23 | –
6 | bis(nonylphenyl)amine [B-16] | 0.667 | –
7 | CCCCCCCCSc1nc(Nc2cc(C(C)(C)C)c(O)c(C(C)(C)C)c2)nc(SCCCCCCCC)n1 [B-19] | 0.333 | –
8 | COc1ccc(O)c(C(C)(C)C)c1 [A-3, 3-tert-butyl-4-hydroxyanisole] | 72 | –
9 | CCCCCCCCSc1nc(Nc2cc(C(C)(C)C)c(O)c(C(C)(C)C)c2)nc(SCCCCCCCC)n1 [B-12] | – | Polymerization time ([1]; class symbol): — (When the PAA was formed within 10 minutes, it was evaluated as “-.”)
10 | c1ccc2c(c1)Nc1ccccc1S2 [B-3, Phenothiazine] | >150 | solubility in the white mineral oil (in words) [2]: not substantially dissolved
11 | Cc1c(C)c2c(c(C)c1O)CC[C@@](C)(CCC[C@H](C)CCC[C@H](C)CCCC(C)C)O2 [B-4, Vitamin E] | 0.5 | –
12 | CCc1cc(C(C)(C)C)c(O)c(C(C)(C)C)c1 [B-14, 2,6-Di-tert-butyl-4-ethylphenol] | – | Polymerization time ([1]; class symbol): — (When the PAA was formed within 10 minutes, it was evaluated as “-.”)
13 | Cc1cc(C(C)(C)C)c(O)c(C(C)(C)C)c1 [B-1, Butylated hydroxytoluene] | 2 | polymerization stability time / PAA formation inhibition effect (in words) [1]: greatly reduced
14 | CCOP(=O)(Cc1cc(C(C)(C)C)c(O)c(C(C)(C)C)c1)OCC [B-8, Diethyl 3,5-Di-tert-butyl-4-hydroxybenzylphosphonate] | 0.333 | –
15 | COc1ccc(O)cc1 [B-2, 4-Methoxyphenol] | >150 | solubility in the white mineral oil (in words) [2]: greatly decreased
16 | COc1ccc(O)c(C(C)(C)C)c1 [A-1, Butylated hydroxyanisole] | >150 | polymerization stability time / PAA formation inhibition effect (in words) [1]: greatly increased; solubility in the white mineral oil (in words) [2]: high
17 | CC(C)(C)c1cc(O)c(O)c(C(C)(C)C)c1 [B-17, 3,5-Di-tert-butylcatechol] | 5 | –
18 | CC(C)(C)c1cc(CCC(=O)OCCSCCOC(=O)CCc2cc(C(C)(C)C)c(O)c(C(C)(C)C)c2)cc(C(C)(C)C)c1O [B-13, 2,2″-Thiodiethylene Bis [3-(3,5-di-tert-butyl-4-hydroxyphenyl) propionate]] | – | Polymerization time ([1]; class symbol): — (When the PAA was formed within 10 minutes, it was evaluated as “-.”)
19 | CCCCCCCCOc1ccc(C(=O)c2ccccc2)c(O)c1 [B-18, 2-hydroxy-4-n-octyloxybenzophenone] | 0.333 | –
20 | CCC(C)(C)c1ccc(O)c(C(C)(C)CC)c1 [B-9, 2,4-Di-tert-amylphenol] | 2 | –
21 | CC(C)(C)c1cccc(C(C)(C)C)c1O [B-5, 2,6-Di-tert-butylphenol] | – | Polymerization time ([1]; class symbol): — (When the PAA was formed within 10 minutes, it was evaluated as “-.”)
